Reference: US8404718B2, “Combinations of pyrazole kinase inhibitors” (Astex Therapeutics Limited, priority 2005, dated 2013)
pIC50: −log10 of the molar value.

Experiments:
GSK3-β = molecular target: T1, GSK3-β (Homo sapiens, UniProt P49841); assay: Inhibitory activity against glycogen synthase kinase-3 (Protocol A or B); type: biochemical; details: either Protocol A or Protocol B; read-out: IC50 in the GSK3-B assays
T1 construct: purchased Upstate Discovery
Description: The activities of the compounds of the invention as inhibitors of GSK-3 were determined using either Protocol A or Protocol B below.
The reaction is allowed to proceed for 3 hours before being stopped with an excess of ortho-phosphoric acid (5 μl at 2%). The filtration procedure is as for Activated CDK2/CyclinA assay above.
GSK3β (human) is diluted to a 10× working stock in 50 mM Tris pH 7.5, 0.1 mM EGTA, 0.1 mM sodium vanadate, 0.1% β-mercaptoethanol, 1 mg/ml BSA.
(specific activity approx 500 cpm/pmol, concentration as required).

[1] = tested on: human colon carcinoma cell line HCT 116; assay: Anti-proliferative activity, Alamar Blue assay; type: cell-based; details: 72 hours compound incubation, read-out: IC50, inhibition of cell growth, HCT 116
Description: The anti-proliferative activities of the combinations of the invention, as well as the individual components of the combinations, are determined by measuring the ability of the compounds to inhibition of cell growth in a number of cell lines. Inhibition of cell growth is measured using the Alamar Blue assay (Nociari, M. M, Shalev, A., Benias, P., Russo, C. Journal of Immunological Methods 1998, 213, 157-167). The method is based on the ability of viable cells to reduce resazurin to its fluorescent product resorufin. For each proliferation assay cells are plated onto 96 well plates and allowed to recover for 16 hours prior to the addition of inhibitor compounds for a further 72 hours. At the end of the incubation period 10% (v/v) Alamar Blue is added and incubated for a further 6 hours prior to determination of fluorescent product at […]. In the case of the non-proliferating cell assay cells are maintained at confluence for 96 hour prior to the addition of inhibitor compounds for a further 72 hours. The number of viable cells is determined by Alamar Blue assay as before. All cell lines are obtained from ECACC (European Collection of cell Cultures).

Activated CDK2/CyclinA = Activated CDK2/CyclinA (Homo sapiens, UniProt P24941); assay: Activated CDK2/CyclinA kinase inhibitory activity assay (IC50), Example 250A; type: biochemical
Description: Compounds of the invention were tested for kinase inhibitory activity using the following protocol.
The reaction is allowed to proceed for 2 to 4 hours before being stopped with an excess of ortho-phosphoric acid (5 μl at 2%).
γ^33P-ATP which remains unincorporated into the histone H1 is separated from phosphorylated histone H1 on a Millipore MAPH filter plate. The wells of the MAPH plate are wetted with 0.5% orthophosphoric acid, and then the results of the reaction are filtered with a Millipore vacuum filtration unit through the wells. Following filtration, the residue is washed twice with 200 μl of 0.5% orthophosphoric acid. Once the filters have dried, 20 μl of Microscint 20 scintillant is added, and then counted on a Packard Topcount for 30 seconds.

T1 sequence (P49841 whole entry): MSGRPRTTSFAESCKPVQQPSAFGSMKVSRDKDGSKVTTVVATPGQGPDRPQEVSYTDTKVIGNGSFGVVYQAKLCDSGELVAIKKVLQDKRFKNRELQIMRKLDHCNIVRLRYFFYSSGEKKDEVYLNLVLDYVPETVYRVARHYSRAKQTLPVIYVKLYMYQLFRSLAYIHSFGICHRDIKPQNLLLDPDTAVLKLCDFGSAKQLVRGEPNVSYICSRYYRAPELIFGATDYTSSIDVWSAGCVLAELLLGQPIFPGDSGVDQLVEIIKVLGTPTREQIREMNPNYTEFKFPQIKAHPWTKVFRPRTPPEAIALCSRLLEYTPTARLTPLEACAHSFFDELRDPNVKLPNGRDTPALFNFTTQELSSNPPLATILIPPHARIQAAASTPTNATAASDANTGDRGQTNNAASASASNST

| Structure (SMILES) | pIC50 (GSK3-β) | pIC50 [1] | pIC50 (Activated CDK2/CyclinA) |
| --- | --- | --- | --- |
| Cc1oc(CN2CCOCC2)cc1C(=O)Nc1c[nH]nc1C(=O)NC1CCC(C(C)(C)C)CC1 (centres unmarked) [Example 138] | > 5.00 | > 4.70 | – |
| O=C(NC1CCNCC1)c1n[nH]cc1NC(=O)c1c(F)cccc1Cl [Example 149] | > 5.00 | > 4.70 | > 4.70 |
| COc1cccc(F)c1C(=O)Nc1c[nH]nc1C(=O)NC1CCN(C(=O)OC(C)(C)C)CC1 [Example 119] | > 5.00 | > 4.70 | > 4.70 |
| CC(C)(C)C1CCC(NC(=O)c2n[nH]cc2NC(=O)c2ccc(Cl)cc2)CC1 (centres unmarked) [Example 126] | > 5.00 | – | – |
| CC(C)(C)C1CCC(NC(=O)c2n[nH]cc2NC(=O)c2cc(F)cc(F)c2)CC1 (centres unmarked) [Example 129] | > 5.00 | – | – |
| N[C@H]1CC[C@H](NC(=O)c2n[nH]cc2NC(=O)c2c(F)cccc2F)CC1 [Example 102] | > 5.00 | > 4.70 | > 4.70 |
| O=C(Nc1c[nH]nc1C(=O)NC1CCNCC1)c1ccccc1 [Example 140] | > 5.00 | > 4.70 | – |
| CC(C)(C)C1CCC(NC(=O)c2c[nH]nc2NC(=O)c2c(F)cccc2F)CC1 (centres unmarked) [Example 77] | > 5.00 | > 4.70 | – |
| O=C(Nc1c[nH]nc1C(=O)NC1CCNCC1)c1cc(-c2ccccc2)cs1 [Example 147] | > 5.00 | > 4.70 | > 4.70 |
| CC(C)(C)C1CCC(NC(=O)c2n[nH]cc2NC(=O)c2ccc(F)cc2)CC1 (centres unmarked) [Example 122] | > 5.00 | – | – |
| O=C(NC1CCN(Cc2ccccc2)CC1)c1n[nH]cc1NC(=O)c1c(F)cccc1F [Example 86] | > 5.00 | > 4.70 | – |
| O=C(NCCN1CCOCC1)c1n[nH]cc1NC(=O)c1c(F)cccc1F [Example 84] | > 5.00 | – | – |
| O=C(Nc1c[nH]nc1C(=O)Nc1ccc(F)cc1)c1ccccc1 [Example 26, 4-Benzoylamino-1H-pyrazole-3-carboxylic acid (4-fluoro-phenyl)-amide] | > 5.00 | > 4.70 | – |
| O=C(Nc1c[nH]nc1C(=O)NC1CCNCC1)c1ccc(F)cc1 [Example 141] | > 5.00 | > 4.70 | – |
| Cc1sccc1C(=O)Nc1c[nH]nc1C(=O)Nc1ccc(F)cc1 [Example 48, 4-[(2-Methyl-thiophene-3-carbonyl)-amino]-1H-pyrazole-3-carboxylic acid (4-fluoro-phenyl)-amide] | > 5.00 | > 4.70 | – |
| CN1CCC(NC(=O)c2n[nH]cc2NC(=O)c2c(F)cccc2F)CC1 [Example 53, 4-(2,6-Difluoro-benzoylamino)-1H-pyrazole-3-carboxylic acid (1-methyl-piperidin-4-yl)-amide] | > 5.00 | > 4.70 | – |
| CC(C)N1CCC(NC(=O)c2n[nH]cc2NC(=O)c2c(F)cccc2F)CC1 [Example 106] | > 5.00 | > 4.70 | > 4.70 |
| COc1cccc(F)c1C(=O)Nc1c[nH]nc1C(=O)NC1CCNCC1 [Example 142] | > 5.00 | > 4.70 | > 4.70 |
| O=C(NC1CCNCC1)c1n[nH]cc1NC(=O)c1c(F)cccc1F [Example 76] | > 5.00 | > 4.70 | – |
| COc1cccc(F)c1C(=O)Nc1c[nH]nc1C(=O)NC1CCC(C(C)(C)C)CC1 (centres unmarked) [Example 123] | > 5.00 | > 4.70 | > 4.70 |
| O=C(Nc1c[nH]nc1C(=O)NC1CCNCC1)c1ccc(OC(F)F)cc1 [Example 145] | > 5.00 | – | > 4.70 |
| CC(C)(C)C1CCC(NC(=O)c2n[nH]cc2NC(=O)c2ccc(CN3CCOCC3)o2)CC1 (centres unmarked) [Example 135] | > 5.00 | > 4.00 | > 4.70 |
| O=C(NC1CCCCC1)c1n[nH]cc1NC(=O)c1c(F)cccc1F [Example 65] | > 5.00 | > 4.70 | – |
| CS(=O)(=O)N1CCC(NC(=O)c2n[nH]cc2NC(=O)c2c(F)cccc2F)CC1 [Example 131] | > 5.00 | > 4.70 | > 4.70 |

| Structure (SMILES) | pIC50 (GSK3-β) | pIC50 [1] | pIC50 (Activated CDK2/CyclinA) |
| --- | --- | --- | --- |
| O=C(Nc1c[nH]nc1C(=O)NC1CCNCC1)c1ccc(Cl)cc1 [Example 143] | > 5.00 | > 4.70 | > 4.70 |
| O=C(NCc1cccnc1)c1n[nH]cc1NC(=O)c1c(F)cccc1F [Example 103] | – | > 4.70 | > 4.70 |
| CN1CCC(NC(=O)c2n[nH]cc2NC(=O)c2ccccc2OC(C)(C)C)CC1 [Example 203] | – | > 4.70 | > 4.70 |
| C[N+]1([O-])CCC(NC(=O)c2n[nH]cc2NC(=O)c2c(F)cccc2F)CC1 (centres unmarked) [Example 162] | – | > 4.70 | > 4.70 |
| O=C(Nc1c[nH]nc1C(=O)NCC1CC1)c1cccc2c1OCCO2 [Example 178] | – | > 4.70 | > 4.70 |
| O=C(NC1CCN(c2ccccn2)CC1)c1n[nH]cc1NC(=O)c1c(F)cccc1F [Example 112] | – | > 4.70 | > 4.70 |
| COc1ccc(F)cc1C(=O)Nc1c[nH]nc1C(=O)NC1CCN(C)CC1 [Example 204] | – | > 4.70 | > 4.70 |
| O=C(NC1CCN(CC(F)(F)F)CC1)c1n[nH]cc1NC(=O)c1c(F)cccc1F [Example 114] | – | > 4.70 | > 4.70 |
| O=C(Nc1c[nH]nc1C(=O)NC1CCNCC1)c1ccc(N2CCOCC2)cc1Cl [Example 151] | > 5.00 | > 4.70 | – |
| O=C(Nc1c[nH]nc1C(=O)NC1CCNCC1)c1cc(F)cc(F)c1 [Example 144] | > 5.00 | – | > 4.70 |
| O=C(N[C@H]1CCCNC1)c1n[nH]cc1NC(=O)c1c(F)cccc1F [Example 152] | – | > 4.70 | > 4.70 |
| O=C(N[C@H]1CC[C@H](O)CC1)c1n[nH]cc1NC(=O)c1c(F)cccc1Cl [Example 155] | – | > 4.70 | > 4.70 |
| O=C(NCc1ccncc1)c1n[nH]cc1NC(=O)c1c(F)cccc1F [Example 104] | – | > 4.70 | > 4.70 |
| CC(C)(C)C1CCC(NC(=O)c2n[nH]cc2NC(=O)c2ccc(OC(F)F)cc2)CC1 (centres unmarked) [Example 128] | > 5.00 | – | – |
| CC(C)(C)C1CCC(NC(=O)c2n[nH]cc2NC(=O)c2ccc(CN3CCCC3)o2)CC1 (centres unmarked) [Example 134] | > 5.00 | > 4.70 | > 4.70 |
| CN1CCC(NC(=O)c2n[nH]cc2NC(=O)c2cc(Cl)ccc2Cl)CC1 [Example 212] | – | > 4.70 | > 4.70 |
| COCCN1CCC(NC(=O)c2n[nH]cc2NC(=O)c2c(F)cccc2F)CC1 [Example 125] | – | > 4.70 | > 4.70 |
| O=C(Nc1c[nH]nc1C(=O)N[C@H]1CC[C@H](O)CC1)Nc1c(F)cccc1F [Example 160] | – | > 4.00 | > 4.70 |
| O=C(Nc1c[nH]nc1C(=O)NC1CCNCC1)c1ccccc1OCc1ccccc1 [Example 200] | – | > 4.70 | > 4.70 |
| COc1cccc(F)c1C(=O)Nc1c[nH]nc1C(=O)NC1CCN(C)CC1 [Example 202] | – | > 4.70 | > 4.70 |
| Cc1onc(-c2ccccc2)c1C(=O)Nc1c[nH]nc1C(=O)NC1CCNCC1 [Example 146] | > 5.00 | – | – |
| CC(C)(C)C1CCC(NC(=O)c2n[nH]cc2NC(=O)c2ccccc2)CC1 (centres unmarked) [Example 127] | > 5.00 | – | – |
| CC(=O)Nc1c[nH]nc1C(=O)Nc1ccc(F)cc1 [Example 2, 4-Acetylamino-1H-pyrazole-3-carboxylic acid (4-fluoro-phenyl)-amide] | > 5.00 | > 4.00 | – |
